The target in the experiment is T1, purified human HDAC6 (Homo sapiens, UniProt Q9UBN7).
T1 construct: purchased BPS Bioscience 5006
T1 sequence (Q9UBN7 1-1215): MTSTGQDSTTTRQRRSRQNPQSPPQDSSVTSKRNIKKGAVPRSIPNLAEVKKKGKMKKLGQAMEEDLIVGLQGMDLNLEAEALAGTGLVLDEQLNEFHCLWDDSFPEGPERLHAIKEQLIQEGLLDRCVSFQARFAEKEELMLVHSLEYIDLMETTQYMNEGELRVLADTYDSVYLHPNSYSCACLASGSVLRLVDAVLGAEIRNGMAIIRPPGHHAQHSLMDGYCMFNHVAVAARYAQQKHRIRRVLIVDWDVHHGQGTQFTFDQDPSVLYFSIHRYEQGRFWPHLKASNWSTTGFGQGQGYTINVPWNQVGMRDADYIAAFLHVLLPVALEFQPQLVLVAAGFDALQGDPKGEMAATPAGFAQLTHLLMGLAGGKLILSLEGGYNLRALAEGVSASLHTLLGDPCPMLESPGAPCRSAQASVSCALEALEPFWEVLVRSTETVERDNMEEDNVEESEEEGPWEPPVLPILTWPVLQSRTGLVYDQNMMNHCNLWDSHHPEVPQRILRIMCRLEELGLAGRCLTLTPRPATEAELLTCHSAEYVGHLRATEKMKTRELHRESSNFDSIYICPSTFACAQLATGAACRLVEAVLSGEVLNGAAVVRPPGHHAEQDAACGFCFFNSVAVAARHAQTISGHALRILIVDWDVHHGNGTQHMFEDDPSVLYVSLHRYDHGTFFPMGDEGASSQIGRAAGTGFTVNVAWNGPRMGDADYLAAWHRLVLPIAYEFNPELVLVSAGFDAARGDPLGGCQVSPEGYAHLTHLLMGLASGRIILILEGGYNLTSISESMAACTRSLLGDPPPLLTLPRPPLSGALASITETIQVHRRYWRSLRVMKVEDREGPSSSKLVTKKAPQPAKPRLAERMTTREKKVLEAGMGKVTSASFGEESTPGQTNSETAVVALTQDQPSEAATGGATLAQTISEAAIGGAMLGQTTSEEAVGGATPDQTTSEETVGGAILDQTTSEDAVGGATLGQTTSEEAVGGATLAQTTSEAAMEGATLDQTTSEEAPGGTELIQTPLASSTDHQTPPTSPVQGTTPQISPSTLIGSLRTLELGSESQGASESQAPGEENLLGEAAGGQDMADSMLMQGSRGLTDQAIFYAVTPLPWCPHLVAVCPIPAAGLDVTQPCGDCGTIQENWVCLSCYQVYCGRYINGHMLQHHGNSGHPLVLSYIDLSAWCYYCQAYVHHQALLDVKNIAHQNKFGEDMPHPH
Put plainly: HDAC6 Enzyme Assay. The following applies: HDAC6 inhibition at a compound concentration of 0.412 μM; read-out: Percent Inhibition at 0.412 μM. Type of experiment: biochemical. How it is done:
To measure the inhibition of HDAC6 activity, purified human HDAC6 (BPS Bioscience; Cat. No. 5006) is incubated with substrate Ac-Arg-Gly-Lys(Ac)-AMC peptide (Bachem Biosciences; Cat. No. I-1925) for 1 hour at 30° C. in the presence of test compounds or vehicle DMSO control. The reaction is stopped with the HDAC inhibitor trichostatin A (Sigma; Cat. No. T8552) and the amount of Arg-Gly-Lys-AMC generated is quantitated by digestion with trypsin (Sigma; Cat. No. T1426) and subsequent measurement of the amount of AMC released using a fluorescent plate reader (Pherastar; BMG Technologies) set at Ex 340 nm and Em 460 nm. Concentration response curves are generated by calculating the fluorescence increase in test compound-treated samples relative to DMSO-treated controls, and enzyme inhibition (IC50) values are determined from those curves.

A word on the inhibition: it is how much of the control response was suppressed.

Take `O=C(NO)C1CCc2cc(F)c(Oc3ccnc(NC(=O)C4CC4)c3)cc2C1` (stereo not shown) [Compound I-32, 7-({2-[(cyclopropylcarbonyl)amino]pyridin-4-yl}oxy)-6-fluoro-N-hydroxy-1,2,3,4-tetrahydronaphthalene-2-carboxamide]: the inhibition at 0.412 µM was 91%.
Turning to `O=C(NO)C1CCc2ccc(Nc3ccncc3)cc2C1` (stereo not shown) [Compound I-33, N-hydroxy-7-(pyridin-4-ylamino)-1,2,3,4-tetrahydronaphthalene-2-carboxamide], the inhibition at 0.412 µM worked out at 57%.
Turning to `O=C(NO)C1CCc2ccc(C#Cc3ccccc3)cc2C1` (stereo not shown) [Compound I-34, N-hydroxy-7-(phenylethynyl)-1,2,3,4-tetrahydronaphthalene-2-carboxamide], the inhibition at 0.412 µM amounted to 57%.
With `Cn1cc(-c2cc(C(=O)Nc3ccc4c(c3)CC(C(=O)NO)CC4)cc(C(F)(F)F)c2)cn1` (stereo not shown) [Compound I-35, N-hydroxy-7-{[3-(1-methyl-1H-pyrazol-4-yl)-5-(trifluoromethyl)benzoyl]amino}-1,2,3,4-tetrahydronaphthalene-2-carboxamide], the inhibition at 0.412 µM is 87%.
As for `O=C(NO)C1CCc2ccc(CCc3ccccc3)cc2C1` (stereo not shown) [Compound I-36, N-hydroxy-7-(2-phenylethyl)-1,2,3,4-tetrahydronaphthalene-2-carboxamide], the inhibition at 0.412 µM came out at 37%.
Take `CN(C)Cc1cc(C(=O)Nc2ccc3c(c2)CC(C(=O)NO)CC3)cc(C(F)(F)F)c1` (stereo not shown) [Compound I-37, 7-{[3-[(dimethylamino)methyl]-5-(trifluoromethyl)benzoyl]amino}-N-hydroxy-1,2,3,4-tetrahydronaphthalene-2-carboxamide]: the inhibition at 0.412 µM stood at 55%.
The figure for `O=C(NO)C1CCc2ccc(NCc3cccnc3)cc2C1` (stereo not shown) [Compound I-38, N-hydroxy-7-[(pyridin-3-ylmethyl)amino]-1,2,3,4-tetrahydronaphthalene-2-carboxamide] is 57%; for `NC(=O)c1ccc2c(c1)CC(C(=O)NO)CC2` (stereo not shown) [Compound I-39, N^2-hydroxy-1,2,3,4-tetrahydronaphthalene-2,7-dicarboxamide] it is 76%.
With `CN(C)c1ccc2c(c1)CC(C(=O)NO)CC2` (stereo not shown) [Compound I-40, 7-(dimethylamino)-N-hydroxy-1,2,3,4-tetrahydronaphthalene-2-carboxamide], the inhibition at 0.412 µM worked out at 46%.
On to `O=C(NO)C1CCc2ccc(Oc3cccc(OCc4ccccc4)c3)cc2C1` (stereo not shown) [Compound I-41, 7-[3-(benzyloxy)phenoxy]-N-hydroxy-1,2,3,4-tetrahydronaphthalene-2-carboxamide], for which the inhibition at 0.412 µM turned out to be 64%.
Then `N#Cc1ccc2c(c1)CC(C(=O)NO)CC2` (stereo not shown) [Compound I-42, 7-cyano-N-hydroxy-1,2,3,4-tetrahydronaphthalene-2-carboxamide], with 62%.
With `O=C(NC1CC1)c1cccc(Oc2ccc3c(c2)CC(C(=O)NO)CC3)c1` (stereo not shown) [Compound I-43, 7-{3-[(cyclopropylamino)carbonyl]phenoxy}-N-hydroxy-1,2,3,4-tetrahydronaphthalene-2-carboxamide], the inhibition at 0.412 µM turned out to be 19%.
The figure for `CN(C)CCOc1ccc2c(c1)CC(C(=O)NO)CC2` (stereo not shown) [Compound I-44, 7-[2-(dimethylamino)ethoxy]-N-hydroxy-1,2,3,4-tetrahydronaphthalene-2-carboxamide] is 34%.
Then `CC(C)(C)NC(=O)c1ccc2c(c1)CC(C(=O)NO)CC2` (stereo not shown) [Compound I-45, N^7-(tert-butyl)-N^2-hydroxy-1,2,3,4-tetrahydronaphthalene-2,7-dicarboxamide], with 79%.
In the case of `CN(C)CCOc1cccc(Oc2ccc3c(c2)CC(C(=O)NO)CC3)c1` (stereo not shown) [Compound I-46, 7-{3-[2-(dimethylamino)ethoxy]phenoxy}-N-hydroxy-1,2,3,4-tetrahydronaphthalene-2-carboxamide], the inhibition at 0.412 µM stood at 78%.
For `CC(C)c1cccc(Oc2ccc3c(c2)CC(C(=O)NO)CC3)c1` (stereo not shown) [Compound I-47, N-hydroxy-7-(3-isopropylphenoxy)-1,2,3,4-tetrahydronaphthalene-2-carboxamide], the inhibition at 0.412 µM is 74%.
The figure for `O=C(NO)C1CCc2ccc(-c3cccc(OCc4ccccc4)c3)cc2C1` (stereo not shown) [Compound I-48, 7-[3-(benzyloxy)phenyl]-N-hydroxy-1,2,3,4-tetrahydronaphthalene-2-carboxamide] is 73%; for `O=C(NO)C1CCc2ccc(-c3cccc(Cl)c3)cc2C1` (stereo not shown) [Compound I-49, 7-(3-chlorophenyl)-N-hydroxy-1,2,3,4-tetrahydronaphthalene-2-carboxamide] it is 82%; for `O=C(NO)C1CCc2ccc(Oc3cccc(NC(=O)C4CC4)c3)cc2C1` (stereo not shown) [Compound I-50, 7-{3-[(cyclopropylcarbonyl)amino]phenoxy}-N-hydroxy-1,2,3,4-tetrahydronaphthalene-2-carboxamide] it is 84%.
Turning to `O=C(NC1CC1)c1cccc(-c2ccc3c(c2)CC(C(=O)NO)CC3)c1` (stereo not shown) [Compound I-51, 7-{3-[(cyclopropylamino)carbonyl]phenyl}-N-hydroxy-1,2,3,4-tetrahydronaphthalene-2-carboxamide], the inhibition at 0.412 µM amounted to 88%.
Turning to `CC(C)(C)OC(=O)Nc1ccc(Oc2ccc3c(c2)CC(C(=O)NO)CC3)cc1` (stereo not shown) [Compound I-52, tert-butyl [4-({7-[(hydroxyamino)carbonyl]-5,6,7,8-tetrahydronaphthalen-2-yl}oxy)phenyl]carbamate], the inhibition at 0.412 µM was found to be 74%.
Consider `CC(C)(C)OC(=O)Nc1cccc(Oc2ccc3c(c2)CC(C(=O)NO)CC3)c1` (stereo not shown) [Compound I-53, tert-Butyl [3-({7-[(hydroxyamino)carbonyl]-5,6,7,8-tetrahydronaphthalen-2-yl}oxy)phenyl]carbamate], for which the inhibition at 0.412 µM came out at 83%.
Take `O=C(NO)C1CCc2ccc(-c3cc4ccccc4[nH]3)cc2C1` (stereo not shown) [Compound I-54, N-hydroxy-7-(1H-indol-2-yl)-1,2,3,4-tetrahydronaphthalene-2-carboxamide]: the inhibition at 0.412 µM amounted to 82%.
Then `CS(=O)(=O)Nc1cccc(Oc2ccc3c(c2)CC(C(=O)NO)CC3)c1` (stereo not shown) [Compound I-55, N-hydroxy-7-{3-[(methylsulfonyl)amino]phenoxy}-1,2,3,4-tetrahydronaphthalene-2-carboxamide], with 93%.
For `O=C(NO)C1CCc2ccc(Oc3ccc(NC(=O)C4CC4)cc3)cc2C1` (stereo not shown) [Compound I-56, 7-{4-[(cyclopropylcarbonyl)amino]phenoxy}-N-hydroxy-1,2,3,4-tetrahydronaphthalene-2-carboxamide], the inhibition at 0.412 µM stood at 82%.
Consider `CNC(=O)Nc1cccc(Oc2ccc3c(c2)CC(C(=O)NO)CC3)c1` (stereo not shown) [Compound I-57, N-hydroxy-7-(3-{[(methylamino)carbonyl]amino}phenoxy)-1,2,3,4-tetrahydronaphthalene-2-carboxamide], for which the inhibition at 0.412 µM is 73%.
`CN(C)CCOc1cccc(-c2ccc3c(c2)CC(C(=O)NO)CC3)c1` (stereo not shown) [Compound I-58, 7-{3-[2-(dimethylamino)ethoxy]phenyl}-N-hydroxy-1,2,3,4-tetrahydronaphthalene-2-carboxamide]: the inhibition at 0.412 µM was determined as 87%.
As for `O=C(NO)C1CCc2ccc(Oc3cccc(NCc4ccccc4)c3)cc2C1` (stereo not shown) [Compound I-59, 7-[3-(benzylamino)phenoxy]-N-hydroxy-1,2,3,4-tetrahydronaphthalene-2-carboxamide], the inhibition at 0.412 µM was 76%.

These data come from US20140243334A1, “SUBSTITUTED HYDOXAMIC ACIDS AND USES THEREOF” (Millennium Pharmaceuticals, Inc., priority 2010, published 2014).
